This note sets out measurements from patent publication US10118930B2, “Piperidinylpyrazolopyrimidinones and their use” (BAYER PHARMA AKTIENGESELLSCHAFT, priority 2015, dated 2018).

Where a name gives a salt, the structure may show the parent alone.

In this test the test system is clot lysis (fibrinolysis) in diluted human citrated plasma, tPA-induced. The experiment in a line: Plasma-based clot lysis assay (5%). It is filed as biochemical. Particulars: human citrated platelet-poor plasma 5%, fibrinogen 3 μM, CaCl2 10 mM, tPA 0.2 nM, 37° C., OD at 405 nm. The protocol:
B-2. Plasma-based Clot Lysis Assay (5%)
The clot-lysis test system configures the kinetics of clot formation and degradation in vitro and allows quantifying modulation of the process by selected test compounds.
The test compounds were dissolved in 1% acetic acid and further complemented with an equal volume of DMSO. The resulting stock solutions were serially diluted in 0.5% acetic acid/50% DMSO. 1 μL aliquots of these solutions were placed into 384 well microplates (Greiner, black, transparent bottom), followed by 30 μL of diluted human citrated plasma (platelet-poor, final concentration: 5%; supplemented with fibrinogen, final concentration: 3 μM; dilution buffer: 20 mM HEPES, 150 mM NaCl, 0.01% Brij (pH 7)). The reactions were started by addition of 20 μL of CaCl2 (final concentration: 10 mM), and tPA (tissue plasminogen activator, final concentration: 0.2 nM) in dilution buffer, followed by an additional volume of 20 μL dilution buffer for improved mixing. The reactions were incubated at 37° C. […] IC50 values were determined by comparing the resulting time courses with the time course of a blank control reaction.
With `O=c1cc(C2CCNCC2)n2ncc(-c3nc(C(O)c4ccccc4)no3)c2[nH]1` (stereo not drawn) [Example 238, 3-{3-[hydroxy(phenyl)methyl]-1,2,4-oxadiazol-5-yl}-7-(piperidin-4-yl)pyrazolo[1,5-a]pyrimidin-5(4H)-one hydrochloride], it took 28 nM to reach half-maximal inhibition (IC50).

Take `Cc1noc(-c2c(C)nn3c(C4CCNCC4)cc(=O)[nH]c23)n1` [Example 339, 2-methyl-3-(3-methyl-1,2,4-oxadiazol-5-yl)-7-(piperidin-4-yl)pyrazolo[1,5-a]pyrimidin-5(4H)-one hydrochloride]: half-maximal inhibition (IC50) required 28 nM.

For `O=c1cc(C2CCNCC2)n2ncc(-c3nc(-c4ccc(F)cc4F)no3)c2[nH]1` [Example 158, 3-[3-(2,4-difluorophenyl)-1,2,4-oxadiazol-5-yl]-7-(piperidin-4-yl)pyrazolo[1,5-a]pyrimidin-5(4H)-one hydrochloride], half-maximal inhibition (IC50) was put at 38 nM.

`O=c1cc(C2CCNCC2)n2ncc(-c3ccccc3F)c2[nH]1` [Example 56, 3-(2-Fluorophenyl)-7-(piperidin-4-yl)pyrazolo[1,5-a]pyrimidin-5(4H)-one hydrochloride] had an IC50 of 770 nM.

The molecule `O=c1cc(C2CCNCC2)n2ncc(-c3nnc(-c4ccc(C(F)(F)F)cc4)o3)c2[nH]1` [Example 166, 7-(piperidin-4-yl)-3-{5-[4-(trifluoromethyl)phenyl]-1,3,4-oxadiazol-2-yl}pyrazolo[1,5-a]pyrimidin-5(4H)-one hydrochloride] gave an IC50 of 8.7 nM.

`C[C@H]1C[C@H](c2cc(=O)[nH]c3c(Cl)cnn23)CCN1` [Example 40, (−)-trans-3-Chloro-7-(2-methylpiperidin-4-yl)pyrazolo[1,5-a]pyrimidin-5(4H)-one hydrochloride]: half-maximal inhibition (IC50) required 14 nM. This IC50 lies about 1.6-fold higher than the previous one.

The molecule `COc1cccc(-c2noc(-c3cnn4c(C5CCNCC5)cc(=O)[nH]c34)n2)c1` [Example 125, 3-[3-(3-Methoxyphenyl)-1,2,4-oxadiazol-5-yl]-7-(piperidin-4-yl)pyrazolo[1,5-a]pyrimidin-5 (4H)-one hydrochloride] yielded an IC50 of 40 nM. This IC50 is about 2.9-fold higher than that of the molecule before.

As for `CCc1cccc(NC(=O)c2cnn3c(C4CCNCC4)cc(=O)[nH]c23)c1` [Example 80, N-(3-ethylphenyl)-5-oxo-7-(piperidin-4-yl)-4,5-dihydropyrazolo[1,5-a]pyrimidine-3-carboxamide], the IC50 came out at 33 nM. The IC50 values of the last two molecules are within 1.5-fold of each other.

Take `O=C(O)c1noc(-c2cnn3c(C4CCNCC4)cc(=O)[nH]c23)n1` [Example 221, 5-[5-oxo-7-(piperidin-4-yl)-4,5-dihydropyrazolo[1,5-a]pyrimidin-3-yl]-1,2,4-oxadiazole-3-carboxylic acid hydrochloride]: the IC50 came to 48 nM. This IC50 and that of the molecule before are within 1.5-fold of each other.

In turn, `O=c1cc(C2CCNCC2)n2ncc(-c3nc(Cc4ccc(F)cc4)no3)c2[nH]1` [Example 224, 3-[3-(4-fluorobenzyl)-1,2,4-oxadiazol-5-yl]-7-(piperidin-4-yl)pyrazolo[1,5-a]pyrimidin-5(4H)-one hydrochloride] showed an IC50 of 9.7 nM.

Regarding `Cc1ccc(-c2nnc(-c3cnn4c(C5CCNCC5)cc(=O)[nH]c34)o2)cc1` [Example 170, 3-[5-(4-methylphenyl)-1,3,4-oxadiazol-2-yl]-7-(piperidin-4-yl)pyrazolo[1,5-a]pyrimidin-5 (4H)-one hydrochloride], the 50% inhibitory concentration (IC50) amounted to 34 nM.

Regarding `Cc1nn2c(C3CCNCC3)cc(=O)[nH]c2c1C(=O)N1CCCC(C(C)C)C1` (stereo not drawn) [Example 408, 3-[(3-isopropyl-piperidin-1-yl)carbonyl]-2-methyl-7-(piperidin-4-yl) pyrazolo[1,5-a] pyrimidin-5(4H)-one hydrochloride], the midpoint of inhibition, the IC50, lay at 34 nM.

`O=C(O)c1c(C(F)(F)F)nn2c(C3CCNCC3)cc(=O)[nH]c12` [Example 457, 5-oxo-7-(piperidin-4-yl)-2-(trifluoromethyl)-4,5-dihydropyrazolo[1,5-a]pyrimidine-3-carboxylic acid hydrochloride]: the IC50 came out at 85 nM.

`CCN(Cc1ccccc1)C(=O)c1c(C)nn2c(C3CCNCC3)cc(=O)[nH]c12` [Example 423, N-benzyl-N-ethyl-2-methyl-5-oxo-7-(piperidin-4-yl)-4,5-dihydro-pyrazolo[1,5-a] pyrimidine-3-carboxamide hydrochloride] had an IC50 of 33 nM.

`Cc1nn2c(C3CCNCC3)cc(=O)[nH]c2c1-c1nnc(C(C)(C)C)o1` [Example 338, 3-(5-tert-butyl-1,3,4-oxadiazol-2-yl)-2-methyl-7-(piperidin-4-yl)pyrazolo[1,5-a]pyrimidin-5(4H)-one hydrochloride] had an IC50 of 11 nM.

`O=c1cc(C2CCNCC2)n2nc(-c3cccs3)cc2[nH]1` [Example 25, 7-(Piperidin-4-yl)-2-(2-thienyl)pyrazolo[1,5-a]pyrimidin-5(4H)-one hydrochloride] registered an IC50 of 160 nM. Compared with the last molecule, the IC50 is about 15-fold higher.

In turn, `O=c1cc(C2CCNCC2)n2ncc(-c3nnc(-c4ccncc4)o3)c2[nH]1` [Example 185, 7-(piperidin-4-yl)-3-[5-(pyridin-4-yl)-1,3,4-oxadiazol-2-yl]pyrazolo[1,5-a]pyrimidin-5 (4H)-one hydrochloride] showed an IC50 of 38 nM.

In turn, `O=c1cc(C2CCNCC2)n2ncc(-c3nc(-c4ccc(Cl)cc4)no3)c2[nH]1` [Example 157, 3-[3-(4-chlorophenyl)-1,2,4-oxadiazol-5-yl]-7-(piperidin-4-yl)pyrazolo[1,5-a]pyrimidin-5 (4H)-one hydrochloride] yielded an IC50 of 56 nM.

Turning to `O=c1cc(C2CCNCC2)n2ncc(-c3ccc(C(F)(F)F)cc3)c2[nH]1` [Example 57, 7-(Piperidin-4-yl)-3-[4-(trifluoromethyl)phenyl]pyrazolo[1,5-a]pyrimidin-5(4H)-one hydrochloride], the IC50 came out at 21 nM.

In turn, `O=C(OCC(F)F)c1cnn2c(C3CCNCC3)cc(=O)[nH]c12` [Example 353, 2,2-difluoroethyl 5-oxo-7-(piperidin-4-yl)-4,5-dihydropyrazolo[1,5-a]pyrimidine-3-carboxylate hydrochloride] registered an IC50 of 28 nM.

`O=c1cc(C2CCNCC2)n2ncc(-c3nc(-c4c(Cl)cc(C(F)(F)F)cc4Cl)no3)c2[nH]1` [Example 150, 3-{3-[2,6-Dichloro-4-(trifluoromethyl)phenyl]-1,2,4-oxadiazol-5-yl}-7-(piperidin-4-yl)pyrazolo[1,5-a]pyrimidin-5(4H)-one hydrochloride] showed an IC50 of 45 nM. This IC50 is about 1.6-fold higher than that of the molecule before.

As to `CC(C)(c1ccc(F)cc1)c1noc(-c2cnn3c(C4CCNCC4)cc(=O)[nH]c23)n1` [Example 255, 3-{3-[2-(4-fluorophenyl)propan-2-yl]-1,2,4-oxadiazol-5-yl}-7-(piperidin-4-yl)pyrazolo[1,5-a]pyrimidin-5(4H)-one hydrochloride], the half-inhibitory concentration (IC50) came out at 17 nM. This IC50 lies about 2.6-fold lower than the previous one.

`Cc1ccc(-c2noc(-c3cnn4c(C5CCNCC5)cc(=O)[nH]c34)n2)cc1F` [Example 117, 3-[3-(3-Fluoro-4-methylphenyl)-1,2,4-oxadiazol-5-yl]-7-(piperidin-4-yl)pyrazolo[1,5-a]pyrimidin-5(4H)-one hydrochloride] gave a 50% inhibitory concentration (IC50) of 38 nM.

Consider `O=c1cc(C2CCNCC2)n2ncc(-c3nc(Cc4ccc(Cl)c(Cl)c4)no3)c2[nH]1` [Example 213, 3-[3-(3,4-dichlorobenzyl)-1,2,4-oxadiazol-5-yl]-7-(piperidin-4-yl)pyrazolo[1,5-a]pyrimidin-5 (4H)-one hydrochloride], for which the IC50 was found to be 30 nM. This IC50 and that of the molecule before are within 1.5-fold of each other.

For orientation: IC50 means the concentration at which inhibition is half-maximal.
